Measured values reported in paper PMC3814572, “Identification of Novel Compounds Inhibiting Chikungunya Virus-Induced Cell Death by High Throughput Screening of a Kinase Inhibitor Library” (PLoS Neglected Tropical Diseases, 2013).
pEC50: −log10 of the molar value. Like-named read-outs stand apart in the source and are kept apart here.

Experiments:
HuH-7 cells [1] = conditions: human
CHIKV-118-GFP [2] = experiment: Resazurin reduction assay, dose-response of inhibition of CHIKV-associated cell death in HuH-7; conditions: for pEC50: Chikungunya virus, Huh-7, 72 h; for SI (CC50/EC50): minimum SI based on the highest concentration of compound tested
in vitro = conditions: human
[3] = Resazurin reduction assay, toxicity in MOCK-infected (non-infected) HuH-7; conditions: human
CHIKV-118-GFP [4] = experiment: Image-based high-content assay of CHIKV-118-GFP infectivity in HuH-7; type: cell-based, Chikungunya virus; conditions: for percentage of infected cells / inhibition at 20 µM / inhibition at 50 µM: 24 hrs; for observed apoptotic blebs associated with CHIKV infection: 24 hpi; for inhibition at 20 µM / inhibition at 50 µM: Chikungunya virus, read-out: inhibition of CHIKV-118-GFP infection
CHIKV-118-GFP [5] = experiment: Virus yield reduction assay (plaque assay of culture medium); conditions: 24 hrs, culture supernatant of HuH-7
CHIKV-118-GFP [6] = experiment: Microneutralization assay (protection against CHIKV-induced CPE); conditions: 50 pfu CHIKV-118-GFP, 72 hrs, HuH-7
DENV2 (BR DEN2 01-01) = conditions: 10 µM, Huh-7.5, 72 hrs; cited from earlier work
Huh-7.5 cells = conditions: 10 µM, Huh-7.5, 72 hrs; cited from earlier work
HuH-7 cells [7] = experiment: Cell number by DAPI-stained nuclei imaging in HuH-7; conditions: 50 µM
HuH-7 cells [8] = experiment: Resazurin reduction assay, toxicity in MOCK-infected (non-infected) HuH-7; conditions: HuH-7
[9] = read-out: EC50 (concentration showing 50% inhibition relative to the maximum inhibition achieved)

Structure (SMILES)	pEC50 (CHIKV-118-GFP [2])	pEC50 (CHIKV-118-GFP [2]; [9])	SI (CC50/EC50) (CHIKV-118-GFP [2])	CC50 at 72 h [3]	percentage of infected cells (CHIKV-118-GFP [4]; 20 µM)	observed apoptotic blebs associated with CHIKV infection (CHIKV-118-GFP [4])	other results
CO/C1=C\C(C)=C\[C@@H](C)[C@@H](O)[C@@H](C)C/C(C)=C/C=C/[C@H](OC)[C@@H]([C@@H](C)[C@@H](O)[C@H](C)[C@@]2(O)C[C@@H](O)[C@H](C)[C@@H](C(C)C)O2)OC1=O [BAF, Bafilomycin A1]	7.25	–	–	–	–	–	CC50 (HuH-7 cells [1]): 0.237 µM; CC50 (in vitro): 0.09 µM
COc1ccc(-c2ccc(C(=O)NC(C)C)c3occc23)c(C)c1 [CND0335]	–	5.48	>15	> 50 µM	90.9%	–	–
COc1ccc(-c2ccc(C(=O)Nc3ccc(C(C)C)cc3)c3occc23)c(C)c1 [CND0364]	–	5.21	>8.1	> 50 µM	80.3%	significantly lower	log titer reduction vs DMSO vehicle control (CHIKV-118-GFP [5]; 20 µM): 1.69 log; lowest concentration that inhibited CHIKV-induced CPE (clearing of cell monolayer) (CHIKV-118-GFP [6]): 12.5 µM; inhibition at 20 µM (CHIKV-118-GFP [4]; 20 µM): 19.7%
COc1ccc(-c2coc3c(C(=O)Nc4cccnc4)cccc23)c(C)c1 [CND0366]	–	5.15	>7.0	> 50 µM	94.4%	–	–
COc1ccc(-c2coc3c(C(=O)NC(C)C)cccc23)c(C)c1 [CND0415]	–	5.21	>8.1	> 50 µM	96.4%	–	–
COc1cccc(Nc2cc3c(cn2)cc(-c2cccc(C(F)(F)F)c2)n3C)c1 [CND0545]	–	5.25	>8.9	> 50 µM	71.7%	significantly lower	log titer reduction vs DMSO vehicle control (CHIKV-118-GFP [5]; 20 µM): 2.01 log; lowest concentration that inhibited CHIKV-induced CPE (clearing of cell monolayer) (CHIKV-118-GFP [6]): 25 µM; inhibition at 20 µM (CHIKV-118-GFP [4]; 20 µM): 28.3%
CC(C)c1ccc(NC(=O)c2csc(C(O)C(C)C)n2)cc1 (stereo not drawn) [CND3514]	–	5.66	>22.7	> 50 µM	92.2%	–	inhibition against DENV2 (DENV2 (BR DEN2 01-01)): 67.87%; toxicity in DENV2 screening (cell number) (Huh-7.5 cells): 39.37%
CN(C)CCCN1c2ccccc2Sc2ccc(Cl)cc21 [CPZ, Chlorpromazine]	–	–	–	–	–	–	reduction of cell number (HuH-7 cells [7]; 24 hrs): 86%; reduction of cell number (HuH-7 cells [7]; 48 hrs): > 99.9%; reduction of cell number (HuH-7 cells [7]; 72 hrs): > 99.9%; reduction of cell number (HuH-7 cells [7]; 96 hrs): > 99.9%; fluorescence readout after resazurin treatment (HuH-7 cells [8]; 50 µM, 72 hpi): 240,842±14,730 RFU
CCN(CC)CCCC(C)Nc1ccnc2cc(Cl)ccc12 (stereo not drawn) [CQ, Chloroquine, reference compound]	4.54	–	–	90 µM	–	still prominent	log titer reduction vs DMSO vehicle control (CHIKV-118-GFP [5]; 50 µM): 1.88 log; percentage of infected cells (CHIKV-118-GFP [4]; 50 µM): 24.4%; inhibition at 50 µM (CHIKV-118-GFP [4]; 50 µM): 75.6%
COc1c(C)c2c(c(O)c1C/C=C(\C)CCC(=O)O)C(=O)OC2 [MPA, Mycophenolic acid, reference compound]	5.80	–	–	> 100 µM	–	significantly lower	cytotoxicity at the highest concentration tested (HuH-7 cells [8]; 100 µM): no observable cytotoxicity; percentage of infected cells (CHIKV-118-GFP [4]; 50 µM): 7.34%; inhibition at 50 µM (CHIKV-118-GFP [4]; 50 µM): > 92%
